Measurements from patent US11026953B2, “3-beta-hydroxy-5-alpha-pregnan-20-one for use in treatment of essential tremor” (ASARINA PHARMA AB, priority 2017, dated 2021).

Experiments:
[1] = essential tremor, cited from earlier work
[2] = target: T1, human alpha1,beta2,gamma2 GABAA receptor (Homo sapiens, UniProt P14867+P47870); assay: Patch-clamp (Dynaflow) current response in HEK-293 cells expressing the human alpha1,beta2,gamma2 GABAA receptor; type: cell-based; conditions: for Androstandiol effect by itself (baseline shift), current response in absence of GABA: no GABA; for Antagonism of THDOC enhanced GABA effect, single dose: 1 μM UC1010 + 30 μM GABA + 200 nM THDOC; for Imax, maximal antagonism of THDOC effect in concentration-dependent experiment: 0.1-1 μM UC1010 + 30 μM GABA + 200 nM THDOC, max reached at 1 μM
T1 construct: expressed in transfected cells
Description: (§1) Assay for testing GABAA receptor effects of 3beta-hydroxy-5alpha-pregnan-20-one on human alpha1,beta,gamma and alpha4,beta,delta GABAA receptor subtype.
(§2) In these tests the protocol was optimized to be similar to the physiological conditions in the synaptic cleft.
(§3) Cell culture: HEK-293 cells, permanently transfected with the human alpha1,beta,gamma and alpha4,beta,delta GABAA receptor subtypes, were seeded at a density of 3×10^4/25 cm^2 in cellbind culture flask. The transfected cells were used for patch-clamp experiments 3 days after seeding. When using the cells for patch-clamp experiments the cells were washed twice with oxygen-bubbled extracellular (EC) solution (see below). About 5 mL EC was then added and the cells were kept in the incubator for about 15 minutes. After 15 minutes the cells came loose from the bottom of the flask and were separated by carefully sucking couple of times with a Pasteur pipette.
(§4) DYNAFLOW™ system with Resolve chip was used for patch-clamp experiments: The electrophysiological recordings from HEK-293 cells were performed under voltage-clamp conditions using patch-clamp technique and the DYNAFLOW™ system (DYNAFLOW™ Pro II Platform Zeiss Axiovert 25; Cellectricon AB, Sweden) with Resolve chips as application system.
(§5) Patch pipettes were pulled from borosilicate glass and polished to a resistance 2-5 MΩ when filled with suitable intracellular solution (IC) (pH was adjusted to 7.2) and immersed in bath solution (extracellular, EC) (pH is adjusted to 7.4). The recordings were made using an Axopatch 200B amplifier, a Digidata 1322A (Axon instruments, Foster city, USA). Data were acquired using the pCLAMP software sampled at 10 kHz, filtered at 2-10 kHz and analyzed with Clampfit (versions 9.0, both from Axon instruments, Foster city, USA). No higher series resistance than 20 MΩ between pipette and cell membrane was accepted. No series resistance compensation was used. The stability of series resistance was monitored repeatedly from the time course of capacitative transients during the experiments. The measured liquid-junction potential between EC and IC was subtracted in all data presented. An experiments were performed at room temperature (21-23° C.).
(§6) All steroids were dissolved to the concentration of 6 mM in DMSO. […] End solutions were the solutions added into the wells of the chip.
(§7) Electrophysiology: After compensating for the liquid junction potential a steady holding potential of −17 mV was used in all experiments. […] By using the holding potential of −17 mV and the intracellular solution with low chloride ion concentration the chloride ions flux into the cell when the receptors were activated.
The DYNAFLOW™ system allowed application of solutions for as short as 40 ms up to minutes in time.
In the experiments, THDOC and 3alpha-OH-adiol were used as the positive GABAA receptor modulating steroids.
(§8) Different incubation times were studied to achieve the optimal time for attain stable results and minimize the washout time.
(§9) Biological evaluation—HEK-293 cells, permanently transfected with human alpha1,beta,gamma and alpha4,beta,delta GABAA receptor subtypes and expressing these GABAA receptors.
(§10) Cell lines permanently expressing a functional human GABAA receptor was made in following steps. The GABAA receptor subunits alpha1,beta2,gamma2L or alpha4,beta3,delta including introduced Kozac sequences just before the start codons were subcloned into mammalian expression vectors containing Geneticin, Hygromycin B, and Zeocin resistance, respectively. A HEK-293 cell line stably expressing the three GABAA receptor subunits was produced by transfection of the subunits one at a time.

[3] = target: T2, human alpha4,beta3,delta GABAA receptor (Homo sapiens, UniProt P28472+P48169); assay: Patch-clamp (Dynaflow) current response in HEK-293 cells expressing the human alpha4,beta3,delta GABAA receptor; type: cell-based
T2 construct: expressed in transfected cells
Description: as §1, §2, §3, §4, §5, §6, §7
The DYNAFLOW™ system allowed application of solutions for as short as 40 ms up to minutes in time. […] Therefore, the first GABA application was always repeated twice and the second response was used in the analysis.
Washout: GABA is quite soluble in water and easy to washout from the receptor. […] Steroids on the other hand were difficult to dissolve in water and also difficult to washout from the receptor. In the experiments, THDOC and 3alpha-OH-adiol were used as the positive GABAA receptor modulating steroids. With 2 minutes washout time, 200 nM THDOC and 3alpha-OH-adiol was completely washed out as shown by neither an accumulative nor a desensitization effect.
as §8, §9
as §10, with “A HEK-293 cell line stably expressing the three GABAA receptor subunits was produced by transfection of the subunits one at a time.” left out

[4] = HEK293, read-out: Emax, androstandiol enhancement of GABA mediated current
[5] = listed as 3beta-hydroxy-5alpha-pregnan-20-one

T1 sequence (P14867 28-456): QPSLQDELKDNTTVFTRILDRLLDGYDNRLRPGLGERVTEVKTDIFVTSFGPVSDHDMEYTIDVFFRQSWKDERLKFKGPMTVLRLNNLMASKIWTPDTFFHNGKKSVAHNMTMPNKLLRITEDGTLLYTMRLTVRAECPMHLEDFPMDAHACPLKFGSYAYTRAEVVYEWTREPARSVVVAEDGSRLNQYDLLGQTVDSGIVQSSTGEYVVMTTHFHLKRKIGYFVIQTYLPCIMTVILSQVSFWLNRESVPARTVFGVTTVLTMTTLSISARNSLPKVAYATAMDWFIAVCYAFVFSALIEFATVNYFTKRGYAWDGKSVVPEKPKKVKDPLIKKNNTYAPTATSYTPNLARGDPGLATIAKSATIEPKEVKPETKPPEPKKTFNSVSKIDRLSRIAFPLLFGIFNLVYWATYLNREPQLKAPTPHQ
T1 sequence (P47870 26-512): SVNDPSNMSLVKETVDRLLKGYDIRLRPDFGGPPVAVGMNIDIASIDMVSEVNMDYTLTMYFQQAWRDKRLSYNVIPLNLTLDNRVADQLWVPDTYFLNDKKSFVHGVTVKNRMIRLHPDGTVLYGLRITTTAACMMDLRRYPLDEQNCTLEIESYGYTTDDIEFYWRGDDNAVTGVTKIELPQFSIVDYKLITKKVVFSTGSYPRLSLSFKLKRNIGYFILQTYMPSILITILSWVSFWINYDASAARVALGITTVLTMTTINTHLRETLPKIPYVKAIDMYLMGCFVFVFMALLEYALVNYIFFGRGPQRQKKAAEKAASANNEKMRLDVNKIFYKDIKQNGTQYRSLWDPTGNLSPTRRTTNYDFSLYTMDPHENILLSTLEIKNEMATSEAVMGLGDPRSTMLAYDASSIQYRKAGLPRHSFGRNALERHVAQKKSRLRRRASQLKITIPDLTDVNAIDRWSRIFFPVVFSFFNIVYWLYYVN
T1 sequence (P18507 40-475 partner): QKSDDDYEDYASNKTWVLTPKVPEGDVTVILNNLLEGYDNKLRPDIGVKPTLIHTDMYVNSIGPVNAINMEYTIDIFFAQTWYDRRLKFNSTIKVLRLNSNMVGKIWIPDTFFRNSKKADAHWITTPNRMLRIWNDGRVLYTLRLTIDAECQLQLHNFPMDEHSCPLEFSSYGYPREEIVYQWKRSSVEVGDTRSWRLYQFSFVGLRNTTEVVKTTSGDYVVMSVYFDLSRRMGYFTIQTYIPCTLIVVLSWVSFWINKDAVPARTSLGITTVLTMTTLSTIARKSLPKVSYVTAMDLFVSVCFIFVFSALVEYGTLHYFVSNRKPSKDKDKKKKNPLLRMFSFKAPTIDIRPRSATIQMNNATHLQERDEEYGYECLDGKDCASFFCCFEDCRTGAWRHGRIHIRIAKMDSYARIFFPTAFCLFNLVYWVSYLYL
T2 sequence (P48169 36-554): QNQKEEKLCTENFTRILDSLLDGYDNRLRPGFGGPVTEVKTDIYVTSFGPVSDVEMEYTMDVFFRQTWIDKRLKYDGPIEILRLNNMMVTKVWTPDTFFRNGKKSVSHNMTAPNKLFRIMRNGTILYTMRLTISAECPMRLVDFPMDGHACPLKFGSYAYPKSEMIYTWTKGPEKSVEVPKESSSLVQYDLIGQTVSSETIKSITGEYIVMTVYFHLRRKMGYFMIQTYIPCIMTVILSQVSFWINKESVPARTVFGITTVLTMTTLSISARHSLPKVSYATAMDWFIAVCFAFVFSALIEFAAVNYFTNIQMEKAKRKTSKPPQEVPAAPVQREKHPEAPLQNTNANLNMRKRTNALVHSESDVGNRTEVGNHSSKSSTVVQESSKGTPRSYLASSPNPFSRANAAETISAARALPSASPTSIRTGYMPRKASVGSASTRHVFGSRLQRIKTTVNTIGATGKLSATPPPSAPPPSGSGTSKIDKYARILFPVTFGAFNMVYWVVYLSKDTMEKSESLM
T2 sequence (P28472 26-473): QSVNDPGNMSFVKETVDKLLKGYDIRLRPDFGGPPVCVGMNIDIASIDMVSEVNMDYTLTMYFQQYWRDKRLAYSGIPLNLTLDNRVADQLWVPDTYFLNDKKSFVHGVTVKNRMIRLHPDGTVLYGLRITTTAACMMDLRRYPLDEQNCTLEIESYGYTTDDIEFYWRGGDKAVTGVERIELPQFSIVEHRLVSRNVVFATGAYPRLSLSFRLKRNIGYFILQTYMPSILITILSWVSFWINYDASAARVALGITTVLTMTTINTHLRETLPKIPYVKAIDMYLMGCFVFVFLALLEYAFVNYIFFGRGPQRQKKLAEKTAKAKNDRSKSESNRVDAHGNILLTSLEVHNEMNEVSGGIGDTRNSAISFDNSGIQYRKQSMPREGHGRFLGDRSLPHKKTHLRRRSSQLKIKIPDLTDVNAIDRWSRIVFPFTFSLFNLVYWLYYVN
T2 sequence (O14764 17-452 partner limits assumed): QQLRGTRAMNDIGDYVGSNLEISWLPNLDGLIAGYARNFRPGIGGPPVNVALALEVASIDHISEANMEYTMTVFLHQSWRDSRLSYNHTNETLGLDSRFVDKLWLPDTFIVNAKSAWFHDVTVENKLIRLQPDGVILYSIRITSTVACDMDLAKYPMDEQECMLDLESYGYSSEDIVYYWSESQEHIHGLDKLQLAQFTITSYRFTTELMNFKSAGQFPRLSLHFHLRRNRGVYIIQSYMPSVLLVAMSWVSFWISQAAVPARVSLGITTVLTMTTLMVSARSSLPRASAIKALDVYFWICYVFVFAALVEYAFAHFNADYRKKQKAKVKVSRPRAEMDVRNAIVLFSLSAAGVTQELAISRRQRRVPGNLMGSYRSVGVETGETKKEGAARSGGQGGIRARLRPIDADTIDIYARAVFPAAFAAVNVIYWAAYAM

CCO [Alcohol]
Reduction in tremor scores ([1]; only during a short period (30 minutes) with a rebound later): 50%

C[C@]12CC[C@@H](O)C[C@@H]1CC[C@@H]1[C@@H]2CC[C@]2(C)C(O)CC[C@@H]12 (stereo partly drawn) [Androstandiol, 3alpha-hydroxy-5alpha-androstan-17-ol]
Androstandiol effect by itself (baseline shift), current response in absence of GABA ([2]; 3 μM androstandiol, Mean ± SEM): +8 ± 3.6 pA | Androstandiol effect by itself (baseline shift), current response in absence of GABA ([2]; 8 μM androstandiol, Mean ± SEM): +13 ± 2.3 pA | Androstandiol effect by itself (baseline shift), current response in absence of GABA ([2]; 10 μM androstandiol, Mean ± SEM): +11 ± 1.5 pA | Androstandiol effect by itself (baseline shift), current response in absence of GABA ([2]; 30 μM androstandiol, Mean ± SEM): +24 ± 6.8 pA | Androstandiol effect by itself (baseline shift), current response in absence of GABA ([2]; 100 μM androstandiol, Mean ± SEM): +43 ± 5.7 pA | Emax [2, 4]: 281% | Potency relative to THDOC in enhancing the effect of GABA (less potent) ([2]; androstandiol vs THDOC): 48 times | Potency at alpha4,beta3,delta relative to alpha1,beta2,gamma2 (higher) ([3]; 0.38 μM vs. 3.4 μM): 10 times | Androstandiol baseline shift, current response in absence of GABA ([3]; 3 μM androstandiol, no GABA, Mean ± SEM): +8 ± 3.6 pA | Androstandiol baseline shift, current response in absence of GABA ([3]; 10 μM androstandiol, no GABA, Mean ± SEM): +13 ± 4.8 pA | Emax [3, 4]: 142%

CCC1(c2ccccc2)C(=O)NCNC1=O [Primidone, primidone]
Reduction of tremor scores [1]: 35-50%

C[C@]12CC[C@@H](O)C[C@H]1CC[C@@H]1[C@@H]2CC[C@]2(C)[C@@H](C(=O)CO)CC[C@@H]12 [THDOC, Tetrahydrodeoxycorticosterone]
Imax/Emax, THDOC enhancement of GABA mediated current ([2]; 0.03-1 μM THDOC + 30 μM GABA, control 30 μM GABA set to 0): +115% | THDOC baseline shift, current response in absence of GABA ([3]; 0.03 μM THDOC, no GABA, Mean ± SEM): +5 ± 3.3 pA | THDOC baseline shift, current response in absence of GABA ([3]; 0.1 μM THDOC, no GABA, Mean ± SEM): +15 ± 9.5 pA | THDOC baseline shift, current response in absence of GABA ([3]; 0.3 μM THDOC, no GABA, Mean ± SEM): +12 ± 7.9 pA | THDOC baseline shift, current response in absence of GABA ([3]; 1 μM THDOC, no GABA, Mean ± SEM): +69 ± 35 pA | Emax, THDOC enhancement of GABA mediated current ([3]; 3 μM GABA): 297% | EC50 ([3]; read-out: EC50, THDOC enhancement of GABA mediated current, 3 μM GABA): 47 nM

CC(=O)[C@H]1CC[C@H]2[C@@H]3CC[C@H]4C[C@@H](O)CC[C@]4(C)[C@H]3CC[C@]12C [UC1010, 3beta-hydroxy-5alpha-pregnan-20-one]
Antagonism of THDOC enhanced GABA effect, single dose [2]: −21 ± 4.6% | Antagonism of THDOC enhanced GABA effect, single dose [2, 5]: −22.3±5.3% | Modulatory effect of UC1010 on GABA response ([2]; 1 μM UC1010 + 30 μM GABA, vs GABA alone, NS, n=9): 10.3±7.8% | Effect of 1 μM UC1010 on 8 μM Androstandiol + 30 μM GABA ([2]; 1 μM UC1010, steady state (phasic effect), Mean ± SEM): −30 ± 1.7% | Effect of 1 μM UC1010 on 8 μM Androstandiol, baseline shift ([2]; 1 μM UC1010, tonic effect without GABA, Mean ± SEM): −33 ± 7.6% | Imax, maximal antagonism of THDOC effect in concentration-dependent experiment [2]: −21% | Imax, maximal antagonism of THDOC effect in concentration-dependent experiment [2, 5]: −21±4.6% | Effect of 1 μM UC1010 on 3 μM GABA response ([3]; 1 μM UC1010, 3 μM GABA, Mean ± SEM, N=11, NS): −6.7 ± 3.3% | Effect of 1 μM UC1010 on 0.6 μM Androstandiol + 3 μM GABA ([3]; 1 μM UC1010, Mean ± SEM): −18 ± 2.0% | Effect of 1 μM UC1010 on 0.8 μM Androstandiol + 3 μM GABA ([3]; 1 μM UC1010, Mean ± SEM): −22 ± 2.6% | Effect of 1 μM UC1010 on 0.1 μM THDOC alone baseline ([3]; 1 μM UC1010, THDOC induced baseline shift without GABA, Mean ± SEM): −43 ± 3.5% | Effect of UC1010 on GABA-mediated current response, GABA alone (in words) ([3]; 1 μM UC1010, data not shown): without any significant effect | Effect of 1 μM UC1010 on 0.1 μM THDOC + 3 μM GABA ([3]; 1 μM UC1010, steady state, Mean ± SEM): −26 ± 2.4% | Effect of the compound by itself, current response ([3]; 1 μM, no GABA, no THDOC, N=11, NS vs EC solution): −0.4±0.3 pA

Cc1nnc2n1-c1ccc(Cl)cc1C(c1ccccc1)=NC2 [alprazolam]
Reduction of tremor scores [1]: 25%
